From patent publication US20100267561A1, “HERBICIDAL PYRIDAZINONE DERIVATIVES” (priority 2007, published 2010)

Key:
Test in all cases: Test E pre-/postemergence plant response
Format in all cases: in vivo
[1] = system: goosegrass (Eleusine indica); settings: scale 0 to 100
Summary of the method: (§1)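 Formulated in a non-phytotoxic solvent mixture containing surfactant, compound was applied to soil at planting or sprayed on emerged plants at the 1- to 4-leaf stage. Visual comparison with controls followed 14 to 21 days in the greenhouse; 0 = no effect, 100 = complete control.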

[2] = system: quackgrass (Elytrigia repens); settings: scale 0 to 100
Summary of the method: as §1

[3] = system: black mustard (Brassica nigra); settings: scale 0 to 100
Summary of the method: as §1

[4] = system: common chickweed (Stellaria media); settings: Postemergence, scale 0 to 100
Summary of the method: as §1

[5] = system: itchgrass (Rottboellia cochinchinensis); settings: scale 0 to 100
Summary of the method: as §1

[6] = system: barnyardgrass (Echinochloa crus-galli); settings: scale 0 to 100
Summary of the method: as §1

[7] = system: Italian ryegrass (Lolium multiflorum); settings: scale 0 to 100
Summary of the method: as §1

[8] = system: green foxtail (Setaria viridis); settings: scale 0 to 100
Summary of the method: as §1

[9] = system: pitted morningglory (Ipomoea lacunosa); settings: scale 0 to 100
Summary of the method: as §1

[10] = system: surinam grass (Brachiaria decumbens); settings: scale 0 to 100
Summary of the method: as §1

[11] = system: common groundsel (Senecio vulgaris); settings: Postemergence, scale 0 to 100
Summary of the method: as §1

[12] = system: southern (S.) sandbur (Cenchrus echinatus); settings: scale 0 to 100
Summary of the method: as §1

[13] = system: johnsongrass (Sorghum halepense); settings: scale 0 to 100
Summary of the method: as §1

[14] = system: broadleaf signalgrass (Brachiaria platyphylla); settings: scale 0 to 100
Summary of the method: as §1

[15] = system: naked crabgrass (Digitaria nuda); settings: scale 0 to 100
Summary of the method: as §1

SMILES: Cn1ncc(O)c(-c2nn(-c3ccc(Cl)cc3)cc2Br)c1=O [Compound 31]
- Plant response rating, Goosegrass ([1]; 8 g ai/ha, Preemergence): 20
- Plant response rating, Goosegrass ([1]; 16 g ai/ha, Preemergence): 35
- Plant response rating, Goosegrass ([1]; 31 g ai/ha, Preemergence): 100
- Plant response rating, Goosegrass ([1]; 62 g ai/ha, Preemergence): 100
- Plant response rating, Goosegrass ([1]; Postemergence, 8 g ai/ha): 35
- Plant response rating, Goosegrass ([1]; Postemergence, 16 g ai/ha): 50
- Plant response rating, Goosegrass ([1]; Postemergence, 31 g ai/ha): 70
- Plant response rating, Goosegrass ([1]; Postemergence, 62 g ai/ha): 75
- Plant response rating, Quackgrass ([2]; 16 g ai/ha, Preemergence): 0
- Plant response rating, Quackgrass ([2]; 31 g ai/ha, Preemergence): 20
- Plant response rating, Quackgrass ([2]; 62 g ai/ha, Preemergence): 65
- Plant response rating, Quackgrass ([2]; Postemergence, 8 g ai/ha): 0
- Plant response rating, Quackgrass ([2]; Postemergence, 16 g ai/ha): 30
- Plant response rating, Quackgrass ([2]; Postemergence, 31 g ai/ha): 30
- Plant response rating, Quackgrass ([2]; Postemergence, 62 g ai/ha): 50
- Plant response rating, Mustard, Black ([3]; 8 g ai/ha, Preemergence): 0
- Plant response rating, Mustard, Black ([3]; 16 g ai/ha, Preemergence): 0
- Plant response rating, Mustard, Black ([3]; 31 g ai/ha, Preemergence): 0
- Plant response rating, Mustard, Black ([3]; 62 g ai/ha, Preemergence): 0
- Plant response rating, Mustard, Black ([3]; Postemergence, 8 g ai/ha): 0
- Plant response rating, Mustard, Black ([3]; Postemergence, 16 g ai/ha): 0
- Plant response rating, Mustard, Black ([3]; Postemergence, 31 g ai/ha): 0
- Plant response rating, Mustard, Black ([3]; Postemergence, 62 g ai/ha): 0
- Plant response rating, Chickweed ([4]; 8 g ai/ha): 0
- Plant response rating, Chickweed ([4]; 16 g ai/ha): 0
- Plant response rating, Chickweed ([4]; 31 g ai/ha): 0
- Plant response rating, Itchgrass ([5]; 16 g ai/ha, Preemergence): 0
- Plant response rating, Itchgrass ([5]; 31 g ai/ha, Preemergence): 75
- Plant response rating, Itchgrass ([5]; 62 g ai/ha, Preemergence): 75
- Plant response rating, Itchgrass ([5]; Postemergence, 8 g ai/ha): 50
- Plant response rating, Itchgrass ([5]; Postemergence, 16 g ai/ha): 60
- Plant response rating, Itchgrass ([5]; Postemergence, 31 g ai/ha): 65
- Plant response rating, Itchgrass ([5]; Postemergence, 62 g ai/ha): 70
- Plant response rating, Barnyardgrass ([6]; 8 g ai/ha, Preemergence): 0
- Plant response rating, Barnyardgrass ([6]; 16 g ai/ha, Preemergence): 15
- Plant response rating, Barnyardgrass ([6]; 31 g ai/ha, Preemergence): 75
- Plant response rating, Barnyardgrass ([6]; 62 g ai/ha, Preemergence): 90
- Plant response rating, Barnyardgrass ([6]; Postemergence, 8 g ai/ha): 35
- Plant response rating, Barnyardgrass ([6]; Postemergence, 16 g ai/ha): 70
- Plant response rating, Barnyardgrass ([6]; Postemergence, 31 g ai/ha): 75
- Plant response rating, Barnyardgrass ([6]; Postemergence, 62 g ai/ha): 100
- Plant response rating, Ryegrass, Italian ([7]; 16 g ai/ha, Preemergence): 65
- Plant response rating, Ryegrass, Italian ([7]; 31 g ai/ha, Preemergence): 90
- Plant response rating, Ryegrass, Italian ([7]; 62 g ai/ha, Preemergence): 100
- Plant response rating, Ryegrass, Italian ([7]; Postemergence, 8 g ai/ha): 30
- Plant response rating, Ryegrass, Italian ([7]; Postemergence, 16 g ai/ha): 35
- Plant response rating, Ryegrass, Italian ([7]; Postemergence, 31 g ai/ha): 50
- Plant response rating, Ryegrass, Italian ([7]; Postemergence, 62 g ai/ha): 90
- Plant response rating, Foxtail, Green ([8]; 8 g ai/ha, Preemergence): 0
- Plant response rating, Foxtail, Green ([8]; 16 g ai/ha, Preemergence): 5
- Plant response rating, Foxtail, Green ([8]; 31 g ai/ha, Preemergence): 60
- Plant response rating, Foxtail, Green ([8]; 62 g ai/ha, Preemergence): 90
- Plant response rating, Foxtail, Green ([8]; Postemergence, 8 g ai/ha): 50
- Plant response rating, Foxtail, Green ([8]; Postemergence, 16 g ai/ha): 60
- Plant response rating, Foxtail, Green ([8]; Postemergence, 31 g ai/ha): 70
- Plant response rating, Foxtail, Green ([8]; Postemergence, 62 g ai/ha): 75
- Plant response rating, Morningglory ([9]; 16 g ai/ha, Preemergence): 0
- Plant response rating, Morningglory ([9]; 31 g ai/ha, Preemergence): 0
- Plant response rating, Morningglory ([9]; 62 g ai/ha, Preemergence): 0
- Plant response rating, Morningglory ([9]; Postemergence, 8 g ai/ha): 0
- Plant response rating, Morningglory ([9]; Postemergence, 16 g ai/ha): 0
- Plant response rating, Morningglory ([9]; Postemergence, 31 g ai/ha): 0
- Plant response rating, Morningglory ([9]; Postemergence, 62 g ai/ha): 0
- Plant response rating, Surinam Grass ([10]; 16 g ai/ha, Preemergence): 20
- Plant response rating, Surinam Grass ([10]; 31 g ai/ha, Preemergence): 95
- Plant response rating, Surinam Grass ([10]; 62 g ai/ha, Preemergence): 95
- Plant response rating, Surinam Grass ([10]; Postemergence, 8 g ai/ha): 20
- Plant response rating, Surinam Grass ([10]; Postemergence, 16 g ai/ha): 50
- Plant response rating, Surinam Grass ([10]; Postemergence, 31 g ai/ha): 50
- Plant response rating, Surinam Grass ([10]; Postemergence, 62 g ai/ha): 75
- Plant response rating, Groundsel ([11]; 8 g ai/ha): 0
- Plant response rating, Groundsel ([11]; 16 g ai/ha): 0
- Plant response rating, Sandbur, S. ([12]; 16 g ai/ha, Preemergence): 15
- Plant response rating, Sandbur, S. ([12]; 31 g ai/ha, Preemergence): 20
- Plant response rating, Sandbur, S. ([12]; 62 g ai/ha, Preemergence): 90
- Plant response rating, Sandbur, S. ([12]; Postemergence, 8 g ai/ha): 0
- Plant response rating, Sandbur, S. ([12]; Postemergence, 16 g ai/ha): 70
- Plant response rating, Sandbur, S. ([12]; Postemergence, 31 g ai/ha): 75
- Plant response rating, Sandbur, S. ([12]; Postemergence, 62 g ai/ha): 75
- Plant response rating, Johnsongrass ([13]; 16 g ai/ha, Preemergence): 25
- Plant response rating, Johnsongrass ([13]; 31 g ai/ha, Preemergence): 80
- Plant response rating, Johnsongrass ([13]; 62 g ai/ha, Preemergence): 98
- Plant response rating, Johnsongrass ([13]; Postemergence, 8 g ai/ha): 40
- Plant response rating, Johnsongrass ([13]; Postemergence, 16 g ai/ha): 60
- Plant response rating, Johnsongrass ([13]; Postemergence, 31 g ai/ha): 75
- Plant response rating, Johnsongrass ([13]; Postemergence, 62 g ai/ha): 100
- Plant response rating, Signalgrass ([14]; 16 g ai/ha, Preemergence): 15
- Plant response rating, Signalgrass ([14]; 31 g ai/ha, Preemergence): 65
- Plant response rating, Signalgrass ([14]; 62 g ai/ha, Preemergence): 80
- Plant response rating, Signalgrass ([14]; Postemergence, 8 g ai/ha): 65
- Plant response rating, Signalgrass ([14]; Postemergence, 16 g ai/ha): 65
- Plant response rating, Signalgrass ([14]; Postemergence, 31 g ai/ha): 75
- Plant response rating, Signalgrass ([14]; Postemergence, 62 g ai/ha): 75
- Plant response rating, Crabgrass, Naked ([15]; 8 g ai/ha, Preemergence): 0
- Plant response rating, Crabgrass, Naked ([15]; 16 g ai/ha, Preemergence): 50
- Plant response rating, Crabgrass, Naked ([15]; 31 g ai/ha, Preemergence): 98
- Plant response rating, Crabgrass, Naked ([15]; 62 g ai/ha, Preemergence): 100
- Plant response rating, Crabgrass, Naked ([15]; Postemergence, 8 g ai/ha): 30
- Plant response rating, Crabgrass, Naked ([15]; Postemergence, 16 g ai/ha): 65
- Plant response rating, Crabgrass, Naked ([15]; Postemergence, 31 g ai/ha): 75
- Plant response rating, Crabgrass, Naked ([15]; Postemergence, 62 g ai/ha): 90
